Results: patent publication US20220281868A1, “MACROCYCLIC DERIVATIVES AS FACTOR XIA INHIBITORS” (MEDSHINE DISCOVERY INC., priority 2019, published 2022)

Tests used:
human plasma = assay: Determination of aPTT (activated partial thromboplastin time) in human plasma in vitro; conditions: coagulation time
Source text: 2. Determination of aPTT (Activated Partial Thromboplastin Time) in Human Plasma In Vitro
(§1) Purpose of the Experiment:
Detection of the anticoagulant effect of the compounds of the present disclosure on human plasma in vitro
1) Coagulation quality control plasma: produced by TECO, Germany, batch number: 093B-J186A
2) aPTT test solution: produced by TECO, Germany, batch number: 20002745; CaCl2): produced by TECO, Germany, batch number: 031N-J073A; DMSO: Sangon Bioengineering (Shanghai) Co., Ltd., batch number: BB02BA0001
3) Instrument: Germany Meichuang MC-4000 blood coagulation instrument
1) Sample solution preparation: 10 mM compound stock solution was prepared with DMSO, and then serially diluted with DMSO as follows: […], 2500, 625, 156.25, 39.06, 9.76, 2.44 μM; then series of concentrations were diluted with tris(hydroxymethylaminomethane) buffer (containing 5% Tween 80) 10 times for use, and the drug to plasma volume ratio was 1:9 during detection. […]
4) Test detection: According to the instructions of the kit, the sample solution to be tested or the reference solution were added into the 37° C. preheated colorimetric cup, preheated at 37° C. for 2 min, aPTT reagent was added, incubated at 37° C. for 3 min, 0.02 M CaCl2 (preheated at 37° C.) was added, and the coagulation time was recorded.

human factor XIa = biological target: T1, human factor XIa (Homo sapiens, UniProt P03951); assay: Screening test of enzyme inhibitory activity on hFXIa; format: biochemical; conditions: substrate S-2366/S-2306, 37° C. 10 minutes, absorbance 405 nm, pH 7.4
T1 construct: Enzyme, Human Factor XIa (Human Factor XIa, Abcam, Cat #ab62411); purchased Abcam ab62411
Description: 1. Screening Test of Enzyme Inhibitory Activity on hFXIa (Human Factor XIa)
as §1
Detection of the inhibitory activity of the compounds of the present disclosure on human factor XIa
1) Experimental buffer pH 7.4
100 mM Tris-HCl (Sigma, catalog number: T2663, batch number: SLBG2775)
200 mM NaCl (Sigma, catalog number: 13423, batch number: SZBB2360V)
2) Enzymes and Substrates
Enzyme, Human Factor XIa (Human Factor XIa, Abcam, Cat #ab62411): Total amount: 50 μg. Dissolved with experimental buffer and packed separately.
Substrate S-2366 (DiaPharma, catalog number: S821090): 25 mg
3) Instruments and Consumables
SpectraMax 340PC Multifunctional Microplate Reader (Molecular Devices)
384-well black transparent reaction plate (Corning Cata #3712)
Echo Liquid Workstation (Labcyte)
Echo 384-well polypropylene compound plate (Labcyte-P-05525) was used.
Echo 384 Shallow Pore Polypropylene Compound plate (Labcyte-LP-0200, 2.5-12 μL) was used.
Multidrop automatic dispenser (Thermo Scientific)
Multidrop Consumables (Thermo Scientific-24073290) […]
7) The reaction plate was placed in SpectraMax 340PC and incubated at 37° C. for 10 minutes, and the absorbance was detected at 405 nm.
8) Data were analyzed using GraphPad Prism 5.0
% Inhibition rate=100%×[1−(sample reading-low signal average value)/(high signal average value-low signal average value)]
IC50 was analyzed using 4-factor linear regression: […]

T1 sequence (P03951 388-625 limits assumed): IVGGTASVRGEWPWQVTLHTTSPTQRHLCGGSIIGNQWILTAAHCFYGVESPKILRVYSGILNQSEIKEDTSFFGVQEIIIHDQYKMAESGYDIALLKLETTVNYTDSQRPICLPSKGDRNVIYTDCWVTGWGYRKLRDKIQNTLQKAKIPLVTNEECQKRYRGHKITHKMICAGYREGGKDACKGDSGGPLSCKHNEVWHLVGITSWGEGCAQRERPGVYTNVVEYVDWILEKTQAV
T1 sequence (P03951 19-387 partner limits assumed): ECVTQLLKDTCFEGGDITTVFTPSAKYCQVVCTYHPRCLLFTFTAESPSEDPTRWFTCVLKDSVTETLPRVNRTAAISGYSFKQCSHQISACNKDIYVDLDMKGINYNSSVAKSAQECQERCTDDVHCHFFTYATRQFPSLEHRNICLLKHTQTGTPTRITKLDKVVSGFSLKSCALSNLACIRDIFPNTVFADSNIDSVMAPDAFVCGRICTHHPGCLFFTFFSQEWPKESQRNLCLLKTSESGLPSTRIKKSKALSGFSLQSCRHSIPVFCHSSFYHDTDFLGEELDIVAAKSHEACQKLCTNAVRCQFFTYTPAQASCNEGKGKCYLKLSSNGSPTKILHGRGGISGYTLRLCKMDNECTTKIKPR

## Enoxaparin [reference compound]
Human plasma
  aPTT2x: 4.61 µM

## C[C@@H]1CCCC(c2coc(-c3cc(Cl)ccc3-n3cc(C#N)nn3)cc2=O)c2cc(ccn2)-c2c(cnn2C(F)F)NC1=O (stereo partly shown) [Compound 4]
Human factor XIa
  IC50: 2.28 nM

## [2H]C([2H])([2H])n1ncc2c1-c1ccnc(c1)C(c1coc(-c3c(-n4cc(Cl)nn4)ccc(Cl)c3F)cc1=O)CCCC(C)C(=O)N2 (stereo not shown) [Compound 8-1]
Human factor XIa
  IC50: 3.5 nM
Human plasma
  aPTT2x: 4.94 µM
